{"source": "patent US4345938A", "about": "“Herbicidal 2-haloacetanilides” (Monsanto Company, priority 1980, dated 1982)", "assay_type_in_all_cases": "in vivo", "key": {"[1]": {"tested_on": "Monochoria vaginalis", "assay": "Field transplant rice test, applied 9 DAT, MV", "details": "for inhibition at 375 g/ha / inhibition at 750 g/ha / inhibition at 1500 g/ha / inhibition at 3000 g/ha: Pontederia vaginalis, 216 h, read-out: Percent Inhibition, MV; for inhibition at 375 g/ha: 0.375 Kg/Ha; for inhibition at 750 g/ha: 0.75 Kg/Ha; for inhibition at 1500 g/ha: 1.5 Kg/Ha; for inhibition at 3000 g/ha: 3.0 Kg/Ha", "procedure,_shortened": "(§1)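 Field test in transplanted rice, herbicides applied as granules (2.5% or 5.0% w/w active) 9 days after transplant at 3.0 down to 0.375 kg/ha. Weed control observed weekly from 3 to 7 weeks after transplant.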"}, "[2]": {"tested_on": "Echinochloa crus-galli", "assay": "Field transplant rice test, applied 9 DAT, EC", "details": "for inhibition at 375 g/ha / inhibition at 750 g/ha / inhibition at 1500 g/ha / inhibition at 3000 g/ha: Echinochloa crus-galli, 216 h, read-out: Percent Inhibition, EC; for inhibition at 375 g/ha: 0.375 Kg/Ha; for inhibition at 750 g/ha: 0.75 Kg/Ha; for inhibition at 1500 g/ha: 1.5 Kg/Ha; for inhibition at 3000 g/ha: 3.0 Kg/Ha", "procedure,_shortened": "as §1"}, "[3]": {"tested_on": "Eleocharis kuroguwai", "assay": "Field transplant rice test, applied 9 DAT, EK", "details": "for inhibition at 375 g/ha / inhibition at 750 g/ha / inhibition at 1500 g/ha / inhibition at 3000 g/ha: Eleocharis kuroguwai, 216 h, read-out: Percent Inhibition, EK; for inhibition at 375 g/ha: 0.375 Kg/Ha; for inhibition at 750 g/ha: 0.75 Kg/Ha; for inhibition at 1500 g/ha: 1.5 Kg/Ha; for inhibition at 3000 g/ha: 3.0 Kg/Ha", "procedure,_shortened": "as §1"}, "[4]": {"tested_on": "Rice", "assay": "Field transplant rice test, applied 9 DAT, rice injury", "details": "Oryza sativa, 216 h, read-out: Percent Inhibition, Rice; for inhibition at 375 g/ha: 0.375 Kg/Ha; for inhibition at 750 g/ha: 0.75 Kg/Ha; for inhibition at 1500 g/ha: 1.5 Kg/Ha; for inhibition at 3000 g/ha: 3.0 Kg/Ha", "procedure,_shortened": "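Field transplant rice; herbicides applied as granules (2.5% by weight active, 5.0% for one prior-art comparator) at 9 days after transplant. Rates from 3.0 kg/ha (2.67 lb/A) down to 0.375 kg/ha (0.34 lb/A). Crop injury observed weekly from 3 to 7 weeks after transplant.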"}, "[5]": {"tested_on": "Cyperus serotinus", "assay": "Greenhouse transplant rice test, CS", "details": "about 3 WAT, read-out: Percent Inhibition, CS", "description": "The test procedure used in this greenhouse test is as follows: Ray silt loam top soil containing about 0.05% by weight of krillium and sifted through a […] screen is fumigated about 5-10 days prior to use. Pots are then filled with said Ray silt loam soil to a level to allow for a 1 in. (2.54 cm) flooding depth. Rice plants (Bluebelle) of 2 to 3 weeks age are transplanted to the pots and bulbs or seeds of the test weeds also planted in the pots. The pots are then flooded and the test chemical applied to the surface of the flood water. The flood water is reduced to allow for germination of the Echinochloa crus-galli (barnyardgrass) seed and subsequently reflooded and maintained in that condition. Observations of percent inhibition using a scale of 0-100% are made about 3 weeks after transplant (WAT).\nThe test data in Table III for all compounds was obtained under identical test conditions. The weeds used in the tests herein have the following abbreviations in the tables: Echinochloa crus-galli (EC), Monochloria vaginalis (MV), Cyperus Serotinus (CS), Eleocharis Kuroguwai (EK) and Sagittaria trifolia (ST)."}, "[6]": {"tested_on": "Rice", "assay": "Field transplant rice test, applied 0 DAT, rice injury", "details": "Oryza sativa, 0 h, read-out: Percent Inhibition, Rice; for inhibition at 375 g/ha: 0.375 Kg/Ha; for inhibition at 750 g/ha: 0.75 Kg/Ha; for inhibition at 1500 g/ha: 1.5 Kg/Ha; for inhibition at 3000 g/ha: 3.0 Kg/Ha", "procedure,_shortened": "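Field test in transplant rice with herbicide applied as granules at transplanting (0 DAT), at rates from 3.0 kg/ha down to 0.375 kg/ha. Injury was rated weekly from 2 to 6 weeks after transplant. Granules held 2.5% or 5.0% herbicide by weight, depending on compound.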"}}, "note": "Where two headings read alike, the source gives them in different places."}
{"compound": "CCCCOCN(C(=O)CCl)c1c(CC)cccc1CC", "note": "[Compound A, 2',6'-diethyl-N-(n-butoxymethyl)-2-chloroacetanilide]", "values": [{"measurement": "inhibition at 375 g/ha", "setting": "[1]; 3 WAT", "value": 90, "unit": "%"}, {"measurement": "inhibition at 375 g/ha", "setting": "[1]; 5 WAT", "value": 98, "unit": "%"}, {"measurement": "inhibition at 375 g/ha", "setting": "[1]; 7 WAT", "value": 80, "unit": "%"}, {"measurement": "inhibition at 750 g/ha", "setting": "[1]; 3 WAT", "value": 92, "unit": "%"}, {"measurement": "inhibition at 750 g/ha", "setting": "[1]; 5 WAT", "value": 87, "unit": "%"}, {"measurement": "inhibition at 750 g/ha", "setting": "[1]; 7 WAT", "value": 60, "unit": "%"}, {"measurement": "inhibition at 1500 g/ha", "setting": "[1]; 3 WAT", "value": 100, "unit": "%"}, {"measurement": "inhibition at 1500 g/ha", "setting": "[1]; 5 WAT", "value": 100, "unit": "%"}, {"measurement": "inhibition at 1500 g/ha", "setting": "[1]; 7 WAT", "value": 100, "unit": "%"}, {"measurement": "inhibition at 3000 g/ha", "setting": "[1]; 3 WAT", "value": 100, "unit": "%"}, {"measurement": "inhibition at 3000 g/ha", "setting": "[1]; 5 WAT", "value": 100, "unit": "%"}, {"measurement": "inhibition at 3000 g/ha", "setting": "[1]; 7 WAT", "value": 100, "unit": "%"}, {"measurement": "selectivity factor (GR15/GR85), MV in transplant rice", "setting": "[1]; between 3 WAT and 7 WAT", "value": 8}, {"measurement": "inhibition at 375 g/ha", "setting": "[2]; 3 WAT", "value": 23, "unit": "%"}, {"measurement": "inhibition at 375 g/ha", "setting": "[2]; 5 WAT", "value": 20, "unit": "%"}, {"measurement": "inhibition at 375 g/ha", "setting": "[2]; 7 WAT", "value": 17, "unit": "%"}, {"measurement": "inhibition at 750 g/ha", "setting": "[2]; 3 WAT", "value": 80, "unit": "%"}, {"measurement": "inhibition at 750 g/ha", "setting": "[2]; 5 WAT", "value": 75, "unit": "%"}, {"measurement": "inhibition at 750 g/ha", "setting": "[2]; 7 WAT", "value": 70, "unit": "%"}, {"measurement": "inhibition at 1500 g/ha", "setting": "[2]; 3 WAT", "value": 88, "unit": "%"}, {"measurement": "inhibition at 1500 g/ha", "setting": "[2]; 5 WAT", "value": 90, "unit": "%"}, {"measurement": "inhibition at 1500 g/ha", "setting": "[2]; 7 WAT", "value": 85, "unit": "%"}, {"measurement": "inhibition at 3000 g/ha", "setting": "[2]; 3 WAT", "value": 93, "unit": "%"}, {"measurement": "inhibition at 3000 g/ha", "setting": "[2]; 5 WAT", "value": 93, "unit": "%"}, {"measurement": "inhibition at 3000 g/ha", "setting": "[2]; 7 WAT", "value": 90, "unit": "%"}, {"measurement": "selectivity factor (GR15/GR85), EC in transplant rice", "setting": "[2]; between 3 WAT and 7 WAT", "value": 2}, {"measurement": "selectivity factor (GR15/GR85), EK in transplant rice", "setting": "[3]; 3 WAT", "value": "non-selective"}, {"measurement": "inhibition at 375 g/ha", "setting": "[3]; 3 WAT", "value": 40, "unit": "%"}, {"measurement": "inhibition at 375 g/ha", "setting": "[3]; 5 WAT", "value": 22, "unit": "%"}, {"measurement": "inhibition at 375 g/ha", "setting": "[3]; 7 WAT", "value": 3, "unit": "%"}, {"measurement": "inhibition at 750 g/ha", "setting": "[3]; 3 WAT", "value": 37, "unit": "%"}, {"measurement": "inhibition at 750 g/ha", "setting": "[3]; 5 WAT", "value": 12, "unit": "%"}, {"measurement": "inhibition at 750 g/ha", "setting": "[3]; 7 WAT", "value": 3, "unit": "%"}, {"measurement": "inhibition at 1500 g/ha", "setting": "[3]; 3 WAT", "value": 55, "unit": "%"}, {"measurement": "inhibition at 1500 g/ha", "setting": "[3]; 5 WAT", "value": 25, "unit": "%"}, {"measurement": "inhibition at 1500 g/ha", "setting": "[3]; 7 WAT", "value": 0, "unit": "%"}, {"measurement": "inhibition at 3000 g/ha", "setting": "[3]; 3 WAT", "value": 68, "unit": "%"}, {"measurement": "inhibition at 3000 g/ha", "setting": "[3]; 5 WAT", "value": 40, "unit": "%"}, {"measurement": "inhibition at 3000 g/ha", "setting": "[3]; 7 WAT", "value": 0, "unit": "%"}, {"measurement": "inhibition at 375 g/ha", "setting": "[4]; 3 WAT", "value": 10, "unit": "%"}, {"measurement": "inhibition at 375 g/ha", "setting": "[4]; 5 WAT", "value": 8, "unit": "%"}, {"measurement": "inhibition at 375 g/ha", "setting": "[4]; 7 WAT", "value": 8, "unit": "%"}, {"measurement": "inhibition at 750 g/ha", "setting": "[4]; 3 WAT", "value": 13, "unit": "%"}, {"measurement": "inhibition at 750 g/ha", "setting": "[4]; 5 WAT", "value": 3, "unit": "%"}, {"measurement": "inhibition at 750 g/ha", "setting": "[4]; 7 WAT", "value": 7, "unit": "%"}, {"measurement": "inhibition at 1500 g/ha", "setting": "[4]; 3 WAT", "value": 12, "unit": "%"}, {"measurement": "inhibition at 1500 g/ha", "setting": "[4]; 5 WAT", "value": 7, "unit": "%"}, {"measurement": "inhibition at 1500 g/ha", "setting": "[4]; 7 WAT", "value": 5, "unit": "%"}, {"measurement": "inhibition at 3000 g/ha", "setting": "[4]; 3 WAT", "value": 12, "unit": "%"}, {"measurement": "inhibition at 3000 g/ha", "setting": "[4]; 5 WAT", "value": 7, "unit": "%"}, {"measurement": "inhibition at 3000 g/ha", "setting": "[4]; 7 WAT", "value": 5, "unit": "%"}, {"measurement": "inhibition at 280 g/ha", "setting": "[5]; 0.28 Kg/Ha", "value": 100, "unit": "%"}, {"measurement": "inhibition at 560 g/ha", "setting": "[5]; 0.56 Kg/Ha", "value": 85, "unit": "%"}, {"measurement": "inhibition at 1120 g/ha", "setting": "[5]; 1.12 Kg/Ha", "value": 90, "unit": "%"}, {"measurement": "inhibition at 2240 g/ha", "setting": "[5]; 2.24 Kg/Ha", "value": 100, "unit": "%"}, {"measurement": "inhibition at 375 g/ha", "setting": "[6]; 2 WAT", "value": 8, "unit": "%"}, {"measurement": "inhibition at 375 g/ha", "setting": "[6]; 4 WAT", "value": 10, "unit": "%"}, {"measurement": "inhibition at 375 g/ha", "setting": "[6]; 6 WAT", "value": 7, "unit": "%"}, {"measurement": "inhibition at 750 g/ha", "setting": "[6]; 2 WAT", "value": 2, "unit": "%"}, {"measurement": "inhibition at 750 g/ha", "setting": "[6]; 4 WAT", "value": 0, "unit": "%"}, {"measurement": "inhibition at 750 g/ha", "setting": "[6]; 6 WAT", "value": 0, "unit": "%"}, {"measurement": "inhibition at 1500 g/ha", "setting": "[6]; 2 WAT", "value": 8, "unit": "%"}, {"measurement": "inhibition at 1500 g/ha", "setting": "[6]; 4 WAT", "value": 23, "unit": "%"}, {"measurement": "inhibition at 1500 g/ha", "setting": "[6]; 6 WAT", "value": 5, "unit": "%"}, {"measurement": "inhibition at 3000 g/ha", "setting": "[6]; 2 WAT", "value": 10, "unit": "%"}, {"measurement": "inhibition at 3000 g/ha", "setting": "[6]; 4 WAT", "value": 2, "unit": "%"}, {"measurement": "inhibition at 3000 g/ha", "setting": "[6]; 6 WAT", "value": 3, "unit": "%"}]}
